Key:
Shiraz grapes [1] = assay: Foliar S-ABA on Shiraz grapes about 3 weeks before veraison: grape quality at harvest and wine quality; type: in vivo; conditions: 200 ppm foliar spray approx. 3 weeks prior to veraison
Method: (§1) S-ABA (200 ppm) was applied by foliar spray using a standard vineyard airblast sprayer at 2000 L/ha to commercially grown Shiraz grapes approximately 3 weeks prior to initiation of veraison. The spray mix contained the surfactant/wetter Agral at 10 ml/100 L. Results reported are means of 4 replicates (grapes) and 3 replicates (wines) per treatment. Winemaking followed a standard small lot fermentation protocol with each replicate wine being made from 50 kg of harvested grapes.
However, at-harvest grape anthocyanin and wine color density and total phenolics are increased by S-ABA.

[2] = test system: Cabernet Sauvignon grapes; assay: Sensory panel rating of Cabernet Sauvignon wine from S-ABA treatment; type: in vivo, grape; conditions: 1-5 scale, 1 = low/short, 5 = high/long
Method: S-ABA (200 ppm) was applied by foliar spray to Cabernet Sauvignon grapes when sugar levels were approximately 11 Be using a standard vineyard airblast sprayer at approximately 2000 L/ha. The spray mix contained the surfactant/wetter Agral at 10 ml/100 L. Wine was prepared from the treated and untreated grapes.

Shiraz grapes [3] = assay: Sensory panel of 6 assessors, Shiraz wine, foliar S-ABA at veraison; type: in vivo, grape; conditions: 200 ppm foliar spray at veraison
Method: S-ABA (200 ppm) was applied by foliar spray at veraison to commercially grown Shiraz grapes through standard agricultural spray equipment on 12 Jan. 2007. Kendeen 20 (Tween 20) was added to the spray mix at 50 ml/100 L. Reported results are means of 3 replicates. Winemaking followed a standard small lot fermentation protocol with each replicate wine being made from 50 kg of harvested grapes.

Shiraz grapes [4] = assay: Sensory panel of 6 assessors, Shiraz wine, drip irrigation S-ABA; type: in vivo, grape; conditions: 0.4 grams per vine via drip irrigation
Method: S-ABA (0.4 grams per vine) was applied to commercially grown Shiraz grapes through the drip irrigation system at approximately 3 weeks prior to initiation of veraison. No surfactant was added to the irrigation water. Results reported are means of 3 replicates. Winemaking followed a standard small lot fermentation protocol with each replicate wine being made from 50 kg of harvested grapes.
Table 5 illustrates that S-ABA increased anthocyanin and phenolics of grape/juice at crush and wine color density and total phenolics and reduced wine hue. S-ABA had no effect on sugar, pH, or total acidity of grapes/juice at crush or on alcohol or pH of wine.

Shiraz grapes [5] = assay: Sensory profile of Shiraz wine from S-ABA-treated fruit, 10 experienced sensory assessors; type: in vivo, grape; conditions: 200 ppm foliar spray, 10 assessors
Method: as §1
Using a nine-point hedonic scale rating (dislike=1 to like=9) the sensors judged wine from the S-ABA treatment higher than the untreated (6.2 vs. 5.0, respectively) and thus a technically better wine.

(S)-5-(1-hydroxy-2,6,6,-trimethyl-4-oxo-2-cyclohexen-1-yl)-3-methyl-(2Z,4E)-pentadienoic acid [S-ABA]
Wine hue (Shiraz grapes [1]): 0.56
Body/fullness [2]: 1.7
Flavor intensity [2]: 2.7
Sensory panel of 6 assessors (Shiraz grapes [3]): more intense fruit, spice and herbaceous flavors and more tannin
Sensory panel of 6 assessors (Shiraz grapes [4]): more intense fruit and was less acidic
Aroma (Shiraz grapes [5]; Shiraz wine sensory profile): more intense berry aroma
Color (Shiraz grapes [5]; Shiraz wine sensory profile): Increased intensity
Taste (Shiraz grapes [5]; Shiraz wine sensory profile): more fruity, more acidic taste
Hedonic scale (1-dislike, 9 like) (Shiraz grapes [5]; Shiraz wine, nine-point hedonic scale): 6.2
